The IC50 is the concentration that gives 50% inhibition.

Bridge positions count the residues as written; N and C are the ends. Square brackets hold non-standard residues; d marks the D form. Peptide text beside a SMILES is read from it. * marks the point of attachment. ξ: configuration not given here. Bip = N[C@@H](Cc1ccc(-c2ccccc2)cc1)C(=O)O; Phe(3-Me) = Cc1cccc(C[C@H](N)C(=O)O)c1; Cha = N[C@@H](CC1CCCCC1)C(=O)O; dNle = CCCC[C@@H](N)C(=O)O; Carboxymethyl = O=C(O)C*; Orn = NCCC[C@H](N)C(=O)O; Aun = NCCCCCCCCCCC(=O)O; Dab = NCC[C@H](N)C(=O)O; Dap = NC[C@H](N)C(=O)O; AEEA = NCCOCCOCC(=O)O; ξC = NC(CS)C(=O)O

The target of the test is T1, PD-1/PD-L1 interaction (PE-labeled human PD-L1-Ig binding to Jurkat cell line over-expressing human PD-1) (Homo sapiens, UniProt Q15116).
T1 construct: expressed in transfected cells; host or cells: Jurkat
T1 sequence (Q15116 25-288): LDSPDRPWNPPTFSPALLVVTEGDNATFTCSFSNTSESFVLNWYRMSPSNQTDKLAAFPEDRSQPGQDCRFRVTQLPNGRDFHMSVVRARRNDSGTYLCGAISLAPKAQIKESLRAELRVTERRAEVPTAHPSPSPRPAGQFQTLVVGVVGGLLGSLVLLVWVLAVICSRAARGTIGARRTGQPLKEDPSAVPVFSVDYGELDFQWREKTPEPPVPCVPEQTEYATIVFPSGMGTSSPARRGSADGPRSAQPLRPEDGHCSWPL
Briefly: Jurkat-PD-1 Cell Binding High-Content Screening Assay (CBA). It is filed as cell-based. The settings on record: Jurkat cell line over-expressing human PD-1; PE-labeled PD-L1-Ig 20 nM final; read-out: Jurkat hPD1-PDL1 IC50. In short, it runs like this:
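Human PD-L1-Ig carrying a covalent PE label on its Ig tag serves as the probe, applied at 20 nM final to compound-treated (2 h, 37° C) Jurkat-hPD-1 cells in medium with 10% fetal calf serum. After one hour, fixation and nuclear staining precede high-content image analysis.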
On to `Cc1cccc(C[C@@H]2NC(=O)[C@H](CC(=O)O)NC(=O)[C@H](Cc3ccc(OCC(=O)O)cc3)NC(=O)[C@H](CN)NC(=O)CSC[C@@H](C(=O)NCCOCCOCC(=O)N[C@@H](CCN)C(=O)NCCCCCCCCCCC(=O)O)NC(=O)[C@H](CN)NC(=O)[C@H](C(C)C)NC(=O)[C@H](CC3CCCCC3)NC(=O)[C@H](CCN)NC(=O)[C@@H](CC(C)C)NC(=O)[C@H](CCCN)NC(=O)[C@H](CCC(=O)O)NC(=O)[C@H](Cc3ccc(-c4ccccc4)cc3)NC(=O)[C@H](C(C)C)NC2=O)c1` [Compound 2658] ({CH2CO}-[Dap]Y(Carboxymethyl)D[Phe(3-Me)]V[Bip]E[Orn][dL][Dab][Cha]V[Dap]C[AEEA][Dab][Aun]-OH; thioether N-14), for which the IC50 was determined as 18 nM. With `Cc1cccc(C[C@@H]2NC(=O)[C@H](CC(=O)O)NC(=O)[C@H](Cc3ccc(OCC(=O)O)cc3)NC(=O)[C@H](CN)NC(=O)CSC[C@@H](C(=O)NCCOCCOCC(=O)N[C@@H](CCN)C(=O)NCCCCCCCCCCC(=O)O)NC(=O)[C@H](CCCN)NC(=O)[C@H](C(C)C)NC(=O)[C@H](CC3CCCCC3)NC(=O)[C@H](CCN)NC(=O)[C@@H](CC(C)C)NC(=O)[C@H](CCCN)NC(=O)[C@H](CCC(=O)O)NC(=O)[C@H](Cc3ccc(-c4ccccc4)cc3)NC(=O)[C@H](C(C)C)NC2=O)c1` [Compound 2659] ({CH2CO}-[Dap]Y(Carboxymethyl)D[Phe(3-Me)]V[Bip]E[Orn][dL][Dab][Cha]V[Orn]C[AEEA][Dab][Aun]-OH; thioether N-14) the figure was 11.5 nM. Consider `CC(C)C[C@H]1NC(=O)[C@H](CCCN)NC(=O)[C@H](CCC(=O)O)NC(=O)[C@H](Cc2ccc(-c3ccccc3)cc2)NC(=O)[C@H](C(C)C)NC(=O)[C@H](Cc2c[nH]c3ccccc23)NC(=O)[C@H](CC(=O)O)NC(=O)[C@H](Cc2ccc(OCC(=O)O)cc2)NC(=O)[C@H](CN)NC(=O)CSC[C@@H](C(=O)N[C@@H](CCN)C(=O)NCCOCCOCC(=O)NCCCCCCCCCCC(=O)O)NC(=O)[C@H](CCCCN)NC(=O)[C@H](C(C)C)NC(=O)[C@H](CC2CCCCC2)NC(=O)[C@H](CCN)NC1=O` [Compound 2660] ({CH2CO}-[Dap]Y(Carboxymethyl)DWV[Bip]E[Orn][dL][Dab][Cha]VKC[Dab][AEEA][Aun]-OH; thioether N-14), for which the IC50 amounted to 11.4 nM. The figure for `Cc1cccc(C[C@@H]2NC(=O)[C@H](CC(=O)O)NC(=O)[C@H](Cc3ccc(OCC(=O)O)cc3)NC(=O)[C@H](CN)NC(=O)CSC[C@@H](C(=O)N[C@@H](CCN)C(=O)NCCOCCOCC(=O)NCCCCCCCCCCC(=O)O)NC(=O)[C@H](CN)NC(=O)[C@H](C(C)C)NC(=O)[C@H](CC3CCCCC3)NC(=O)[C@H](CCN)NC(=O)[C@@H](CC(C)C)NC(=O)[C@H](CCCN)NC(=O)[C@H](CCC(=O)O)NC(=O)[C@H](Cc3ccc(-c4ccccc4)cc3)NC(=O)[C@H](C(C)C)NC2=O)c1` [Compound 2661] ({CH2CO}-[Dap]Y(Carboxymethyl)D[Phe(3-Me)]V[Bip]E[Orn][dL][Dab][Cha]V[Dap]C[Dab][AEEA][Aun]-OH; thioether N-14) is 10.9 nM; for `Cc1cccc(C[C@@H]2NC(=O)[C@H](CC(=O)O)NC(=O)[C@H](Cc3ccc(OCC(=O)O)cc3)NC(=O)[C@H](CN)NC(=O)CSC[C@@H](C(=O)N[C@@H](CCN)C(=O)NCCOCCOCC(=O)NCCCCCCCCCCC(=O)O)NC(=O)[C@H](CCCNC(=N)N)NC(=O)[C@H](C(C)C)NC(=O)[C@H](CC3CCCCC3)NC(=O)[C@H](CCN)NC(=O)[C@@H](CC(C)C)NC(=O)[C@H](CCCN)NC(=O)[C@H](CCC(=O)O)NC(=O)[C@H](Cc3ccc(-c4ccccc4)cc3)NC(=O)[C@H](C(C)C)NC2=O)c1` [Compound 2662] ({CH2CO}-[Dap]Y(Carboxymethyl)D[Phe(3-Me)]V[Bip]E[Orn][dL][Dab][Cha]VRC[Dab][AEEA][Aun]-OH; thioether N-14) it is 11 nM; for `CC(C)C[C@H]1NC(=O)[C@H](CCCN)NC(=O)[C@H](CCC(=O)O)NC(=O)[C@H](Cc2ccc(-c3ccccc3)cc2)NC(=O)[C@H](C(C)C)NC(=O)[C@H](Cc2c[nH]c3ccccc23)NC(=O)[C@H](CC(=O)O)NC(=O)[C@H](Cc2ccc(OCC(=O)O)cc2)NC(=O)[C@H](CN)NC(=O)CSCC(C(=O)NCCOCCOCC(=O)NCCCCCCCCCCC(=O)O)NC(=O)[C@H](CCCCN)NC(=O)[C@H](C(C)C)NC(=O)[C@H](CC2CCCCC2)NC(=O)[C@H](CCN)NC1=O` (stereo partly drawn) [Compound 2665] ({CH2CO}-[Dap]Y(Carboxymethyl)DWV[Bip]E[Orn][dL][Dab][Cha]VK[ξC][AEEA][Aun]-OH; thioether N-14) it is 22.2 nM. The figure for `Cc1cccc(C[C@@H]2NC(=O)[C@H](CC(=O)O)NC(=O)[C@H](Cc3ccc(OCC(=O)O)cc3)NC(=O)[C@H](CN)NC(=O)CSC[C@@H](C(=O)NCCOCCOCC(=O)NCCCCCCCCCCC(=O)O)NC(=O)[C@H](CN)NC(=O)[C@H](C(C)C)NC(=O)[C@H](CC3CCCCC3)NC(=O)[C@H](CCN)NC(=O)[C@@H](CC(C)C)NC(=O)[C@H](CCCN)NC(=O)[C@H](CCC(=O)O)NC(=O)[C@H](Cc3ccc(-c4ccccc4)cc3)NC(=O)[C@H](C(C)C)NC2=O)c1` [Compound 2666] ({CH2CO}-[Dap]Y(Carboxymethyl)D[Phe(3-Me)]V[Bip]E[Orn][dL][Dab][Cha]V[Dap]C[AEEA][Aun]-OH; thioether N-14) is 18 nM; for `Cc1cccc(C[C@@H]2NC(=O)[C@H](CC(=O)O)NC(=O)[C@H](Cc3ccc(OCC(=O)O)cc3)NC(=O)[C@H](CN)NC(=O)CSC[C@@H](C(=O)NCCOCCOCC(=O)NCCCCCCCCCCC(=O)O)NC(=O)[C@H](CCCN)NC(=O)[C@H](C(C)C)NC(=O)[C@H](CC3CCCCC3)NC(=O)[C@H](CCN)NC(=O)[C@@H](CC(C)C)NC(=O)[C@H](CCCN)NC(=O)[C@H](CCC(=O)O)NC(=O)[C@H](Cc3ccc(-c4ccccc4)cc3)NC(=O)[C@H](C(C)C)NC2=O)c1` [Compound 2667] ({CH2CO}-[Dap]Y(Carboxymethyl)D[Phe(3-Me)]V[Bip]E[Orn][dL][Dab][Cha]V[Orn]C[AEEA][Aun]-OH; thioether N-14) it is 9.6 nM.

As to `Cc1cccc(C[C@@H]2NC(=O)[C@H](CC(=O)O)NC(=O)[C@H](Cc3ccc(OCC(=O)O)cc3)NC(=O)[C@H](CN)NC(=O)CSC[C@@H](C(=O)N[C@@H](CCCCN)C(=O)NCCOCCOCC(=O)NCCCCCCCCCCC(=O)O)NC(=O)[C@H](CN)NC(=O)[C@H](C(C)C)NC(=O)[C@H](CC3CCCCC3)NC(=O)[C@H](CCN)NC(=O)[C@@H](CC(C)C)NC(=O)[C@H](CCCN)NC(=O)[C@H](CCC(=O)O)NC(=O)[C@H](Cc3ccc(-c4ccccc4)cc3)NC(=O)[C@H](C(C)C)NC2=O)c1` [Compound 2668] ({CH2CO}-[Dap]Y(Carboxymethyl)D[Phe(3-Me)]V[Bip]E[Orn][dL][Dab][Cha]V[Dap]CK[AEEA][Aun]-OH; thioether N-14), the IC50 was 10.8 nM. With `Cc1cccc(C[C@@H]2NC(=O)[C@H](CC(=O)O)NC(=O)[C@H](Cc3ccc(OCC(=O)O)cc3)NC(=O)[C@H](CN)NC(=O)CSC[C@@H](C(=O)N[C@@H](CCCCN)C(=O)NCCOCCOCC(=O)NCCCCCCCCCCC(=O)O)NC(=O)[C@H](CCCN)NC(=O)[C@H](C(C)C)NC(=O)[C@H](CC3CCCCC3)NC(=O)[C@H](CCN)NC(=O)[C@@H](CC(C)C)NC(=O)[C@H](CCCN)NC(=O)[C@H](CCC(=O)O)NC(=O)[C@H](Cc3ccc(-c4ccccc4)cc3)NC(=O)[C@H](C(C)C)NC2=O)c1` [Compound 2669] ({CH2CO}-[Dap]Y(Carboxymethyl)D[Phe(3-Me)]V[Bip]E[Orn][dL][Dab][Cha]V[Orn]CK[AEEA][Aun]-OH; thioether N-14) the figure was 11.5 nM.

With `Cc1cccc(C[C@@H]2NC(=O)[C@H](CC(=O)O)NC(=O)[C@H](Cc3ccc(OCC(=O)O)cc3)NC(=O)[C@H](CN)NC(=O)CSC[C@@H](C(=O)N[C@@H](CCCCN)C(=O)NCCOCCOCC(=O)NCCCCCCCCCCC(=O)O)NC(=O)[C@H](CCCNC(=N)N)NC(=O)[C@H](C(C)C)NC(=O)[C@H](CC3CCCCC3)NC(=O)[C@H](CCN)NC(=O)[C@@H](CC(C)C)NC(=O)[C@H](CCCN)NC(=O)[C@H](CCC(=O)O)NC(=O)[C@H](Cc3ccc(-c4ccccc4)cc3)NC(=O)[C@H](C(C)C)NC2=O)c1` [Compound 2670] ({CH2CO}-[Dap]Y(Carboxymethyl)D[Phe(3-Me)]V[Bip]E[Orn][dL][Dab][Cha]VRCK[AEEA][Aun]-OH; thioether N-14), the IC50 was 10.8 nM. With `CC(C)C[C@H]1NC(=O)[C@H](CCCN)NC(=O)[C@H](CCC(=O)O)NC(=O)[C@H](Cc2ccc(-c3ccccc3)cc2)NC(=O)[C@H](C(C)C)NC(=O)[C@H](Cc2c[nH]c3ccccc23)NC(=O)[C@H](CC(=O)O)NC(=O)[C@H](Cc2ccc(OCC(=O)O)cc2)NC(=O)[C@H](Cc2ccc(OCC(=O)O)cc2)NC(=O)CSC[C@@H](C(=O)NCCOCCOCC(=O)N[C@@H](CCN)C(=O)NCCCCCCCCCCC(=O)O)NC(=O)[C@H](CCCNC(=N)N)NC(=O)[C@H](C(C)C)NC(=O)[C@H](CC2CCCCC2)NC(=O)[C@H](CCN)NC1=O` [Compound 2671] ({CH2CO}-Y(Carboxymethyl)Y(Carboxymethyl)DWV[Bip]E[Orn][dL][Dab][Cha]VRC[AEEA][Dab][Aun]-OH; thioether N-14) the figure was 14.1 nM.

As for `CCCC[C@H]1NC(=O)[C@H](CCCN)NC(=O)[C@H](C(C)C)NC(=O)[C@H](Cc2ccc(-c3ccccc3)cc2)NC(=O)[C@H](C(C)C)NC(=O)[C@H](Cc2c[nH]c3ccccc23)NC(=O)[C@H](CC(=O)O)NC(=O)[C@H](Cc2ccc(OCC(=O)O)cc2)NC(=O)[C@H](CN)NC(=O)CSC[C@@H](C(=O)NCCOCCOCC(=O)N[C@@H](CCN)C(=O)NCCCCCCCCCCC(=O)O)NC(=O)[C@H](CCCCN)NC(=O)[C@H](C(C)C)NC(=O)[C@H](CC2CCCCC2)NC(=O)[C@H](CCN)NC1=O` [Compound 2672] ({CH2CO}-[Dap]Y(Carboxymethyl)DWV[Bip]V[Orn][dNle][Dab][Cha]VKC[AEEA][Dab][Aun]-OH; thioether N-14), the IC50 came out at 22.7 nM.

For the origin of these results see patent publication US20260022142A1, “MACROCYCLIC IMMUNOMODULATORS” (Bristol-Myers Squibb Company, priority 2022, published 2026).
